What is called IC50 is the concentration that gives 50% inhibition.

T1 sequence (P00533 with tags, fused parts or gaps DEL746-750/C797S, form open): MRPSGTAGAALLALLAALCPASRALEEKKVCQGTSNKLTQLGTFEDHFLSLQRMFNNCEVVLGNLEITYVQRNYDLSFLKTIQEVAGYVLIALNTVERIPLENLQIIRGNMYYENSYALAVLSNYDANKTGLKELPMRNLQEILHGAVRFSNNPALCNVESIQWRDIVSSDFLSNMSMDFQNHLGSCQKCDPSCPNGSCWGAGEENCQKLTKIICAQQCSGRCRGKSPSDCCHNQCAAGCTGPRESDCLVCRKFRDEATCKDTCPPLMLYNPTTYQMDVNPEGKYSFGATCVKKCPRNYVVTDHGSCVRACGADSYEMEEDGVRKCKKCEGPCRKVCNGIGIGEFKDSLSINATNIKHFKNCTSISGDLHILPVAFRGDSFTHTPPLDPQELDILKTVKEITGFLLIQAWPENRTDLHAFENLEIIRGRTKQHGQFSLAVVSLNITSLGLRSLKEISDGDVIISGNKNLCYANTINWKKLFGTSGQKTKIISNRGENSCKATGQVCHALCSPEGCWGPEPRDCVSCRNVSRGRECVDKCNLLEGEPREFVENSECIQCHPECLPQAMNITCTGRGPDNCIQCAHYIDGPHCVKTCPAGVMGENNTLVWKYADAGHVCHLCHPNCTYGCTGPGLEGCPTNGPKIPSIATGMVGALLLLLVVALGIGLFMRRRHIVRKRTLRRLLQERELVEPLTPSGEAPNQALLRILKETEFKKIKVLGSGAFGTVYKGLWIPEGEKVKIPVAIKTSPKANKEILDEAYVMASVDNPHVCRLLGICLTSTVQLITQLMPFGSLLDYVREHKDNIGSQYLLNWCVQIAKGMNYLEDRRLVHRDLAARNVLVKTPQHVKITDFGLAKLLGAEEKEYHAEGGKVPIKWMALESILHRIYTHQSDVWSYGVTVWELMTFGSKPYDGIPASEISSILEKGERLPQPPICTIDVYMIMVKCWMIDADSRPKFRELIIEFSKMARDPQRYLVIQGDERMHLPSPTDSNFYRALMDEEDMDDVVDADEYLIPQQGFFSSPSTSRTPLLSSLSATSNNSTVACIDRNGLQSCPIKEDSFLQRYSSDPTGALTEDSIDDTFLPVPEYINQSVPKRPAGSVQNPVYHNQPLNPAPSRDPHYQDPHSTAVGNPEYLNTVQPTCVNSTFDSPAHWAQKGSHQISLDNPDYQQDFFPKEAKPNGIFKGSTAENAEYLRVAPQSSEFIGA

One assay concerns BaF3 (EGFR L858R/T790M/C797S). In words: Cell proliferation IC50 assay (Cell Titer GLO), BaF3 LTC cells. In kind it is cell-based. Particulars: Mus musculus, Ba/F3 EGFR, Table 6, 72 h. In short, it runs like this:
(§1)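 Each cell line, plated at 2000-4000 cells/well, received serially diluted compound for 72 h (37° C, 5% CO2) before luminescent ATP-based viability detection. IC50 values were derived from growth inhibition relative to DMSO-treated and cell-free blank wells.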
(Cellular ATP, detected with luciferase, serves as a proxy for viable cell number.)
Consider `CCc1cc(Nc2ncc(Cl)c(Nc3ccccc3P(C)(C)=O)n2)c(OC)cc1N1CCC(N2CCN(CC(C)(C)Oc3cccc4c3CN(C3CCC(=O)NC3=O)C4=O)CC2)CC1` (stereo not drawn) [Example E157], for which it took 103 nM to reach half-maximal inhibition (IC50).
Same read-out and setting: as for `CCc1cc(Nc2ncc(Cl)c(Nc3ccccc3P(C)(C)=O)n2)c(OC)cc1N1CCC(N2CCN([C@H]3C[C@H](Oc4cc5c(cc4F)C(=O)N(C4CCC(=O)NC4=O)C5)C3)CC2)CC1` (stereo partly drawn) [Example E205], the figure is 51.7 nM; as for `CCc1cc(Nc2ncc(Cl)c(Nc3ccc(F)cc3P(C)(C)=O)n2)c(OC)cc1N1CCC(N2CCN(CCOc3cccc4c3CN(C3CCC(=O)NC3=O)C4=O)CC2)CC1` (stereo not drawn) [Example E124], 106 nM.
For the compound `CCc1cc(Nc2ncc(Cl)c(Nc3ccccc3P(C)(C)=O)n2)c(OC)cc1N1CCC(N2CCN(CCOCCc3cccc4c3CN(C3CCC(=O)NC3=O)C4=O)CC2)CC1` (stereo not drawn) [Example E109], the IC50 turned out to be 83.3 nM.
On the same count and under the same terms, as for `CCc1cc(Nc2ncc(Cl)c(Nc3ccccc3P(C)(C)=O)n2)c(OC)cc1N1CCC(N2CCN([C@H]3C[C@H](Oc4cccc5c4CN(C4CCC(=O)NC4=O)C5=O)C3)CC2)CC1` (stereo partly drawn) [Example E160], the figure is 14.3 nM; as for `CCc1cc(Nc2ncc(Cl)c(Nc3ccccc3P(C)(C)=O)n2)c(Cl)cc1N1CCC(N2CCN(CCC#Cc3cccc4c3CN(C3CCC(=O)NC3=O)C4=O)CC2)CC1` (stereo not drawn) [Example E46], 17.7 nM.

A further assay relates to BaF3 (EGFR Del19/T790M/C797S). In words: Cell proliferation IC50 assay (Cell Titer GLO), BaF3 DTC cells. In kind it is cell-based. The conditions noted are these: Mus musculus, Ba/F3 EGFR-Del19/T790M/C797S, Table 6, 72 h. How it is done:
IC50 of compounds in the present invention was determined by Cell Titer GLO reagent from Promega. The procedures are as follows:
Tumor cells were cultured in specified medium in an incubator at 37° C. and 5% CO2. The cells were passaged periodically. Cells at the logarithmic growth phase were collected for plating at a density of 2000-4000 cells/well. The next day, the compounds of the present invention were serially diluted and added to the cells, with DMSO being the negative control and the culture media without cells being the blank control. The plate was incubated in the incubator for 72 h. The cell viability assay was performed by adding the detection reagents to the cell culture media according to Cell Titer GLO reagent instructions and detecting luminescent signals on an EnVision microplate reader (PerkinElmer).
Inhibition of cell growth by the compounds of the present invention was plotted by Prism Graphpad software for statistically calculating the IC50 of the compound of the present invention.
For the compound `CCc1cc(Nc2ncc(Cl)c(Nc3ccccc3P(C)(C)=O)n2)c(OC)cc1N1CCC(N2CCN(CC(C)(C)Oc3cccc4c3CN(C3CCC(=O)NC3=O)C4=O)CC2)CC1` (stereo not drawn) [Example E157], inhibition was half-maximal at 11.2 nM (IC50).
On the same count and under the same terms, as for `CCc1cc(Nc2ncc(Cl)c(Nc3ccccc3P(C)(C)=O)n2)c(OC)cc1N1CCC(N2CCN([C@H]3C[C@H](Oc4cc5c(cc4F)C(=O)N(C4CCC(=O)NC4=O)C5)C3)CC2)CC1` (stereo partly drawn) [Example E205], the figure is 6.87 nM; as for `CCc1cc(Nc2ncc(Cl)c(Nc3ccc(F)cc3P(C)(C)=O)n2)c(OC)cc1N1CCC(N2CCN(CCOc3cccc4c3CN(C3CCC(=O)NC3=O)C4=O)CC2)CC1` (stereo not drawn) [Example E124], 6.8 nM; as for `CCc1cc(Nc2ncc(Cl)c(Nc3ccccc3P(C)(C)=O)n2)c(OC)cc1N1CCC(N2CCN(CCOCCc3cccc4c3CN(C3CCC(=O)NC3=O)C4=O)CC2)CC1` (stereo not drawn) [Example E109], 10.5 nM.
Still for that read-out and setting: as for `CCc1cc(Nc2ncc(Cl)c(Nc3ccccc3P(C)(C)=O)n2)c(OC)cc1N1CCC(N2CCN([C@H]3C[C@H](Oc4cccc5c4CN(C4CCC(=O)NC4=O)C5=O)C3)CC2)CC1` (stereo partly drawn) [Example E160], the figure is 2.89 nM.
Same read-out and setting: as for `CCc1cc(Nc2ncc(Cl)c(Nc3ccccc3P(C)(C)=O)n2)c(Cl)cc1N1CCC(N2CCN(CCC#Cc3cccc4c3CN(C3CCC(=O)NC3=O)C4=O)CC2)CC1` (stereo not drawn) [Example E46], the figure is 10.1 nM.

A further assay deals with A431. In words: Cell proliferation IC50 assay (Cell Titer GLO), A431 cells. Format: cell-based. The conditions noted are these: Homo sapiens, A-431; Table 6; A431, 72 h; read-out: A431 IC50. In short, it runs like this:
as §1
As for `CCc1cc(Nc2ncc(Cl)c(Nc3ccccc3P(C)(C)=O)n2)c(OC)cc1N1CCC(N2CCN(CC(C)(C)Oc3cccc4c3CN(C3CCC(=O)NC3=O)C4=O)CC2)CC1` (stereo not drawn) [Example E157], the IC50 amounted to 3170 nM.
The same measure, in the same setting: as for `CCc1cc(Nc2ncc(Cl)c(Nc3ccccc3P(C)(C)=O)n2)c(OC)cc1N1CCC(N2CCN([C@H]3C[C@H](Oc4cc5c(cc4F)C(=O)N(C4CCC(=O)NC4=O)C5)C3)CC2)CC1` (stereo partly drawn) [Example E205], the figure is 1050 nM; as for `CCc1cc(Nc2ncc(Cl)c(Nc3ccc(F)cc3P(C)(C)=O)n2)c(OC)cc1N1CCC(N2CCN(CCOc3cccc4c3CN(C3CCC(=O)NC3=O)C4=O)CC2)CC1` (stereo not drawn) [Example E124], 1270 nM; as for `CCc1cc(Nc2ncc(Cl)c(Nc3ccccc3P(C)(C)=O)n2)c(OC)cc1N1CCC(N2CCN(CCOCCc3cccc4c3CN(C3CCC(=O)NC3=O)C4=O)CC2)CC1` (stereo not drawn) [Example E109], 1140 nM.
On the same count and under the same terms, as for `CCc1cc(Nc2ncc(Cl)c(Nc3ccccc3P(C)(C)=O)n2)c(OC)cc1N1CCC(N2CCN([C@H]3C[C@H](Oc4cccc5c4CN(C4CCC(=O)NC4=O)C5=O)C3)CC2)CC1` (stereo partly drawn) [Example E160], the figure is 2410 nM; as for `CCc1cc(Nc2ncc(Cl)c(Nc3ccccc3P(C)(C)=O)n2)c(Cl)cc1N1CCC(N2CCN(CCC#Cc3cccc4c3CN(C3CCC(=O)NC3=O)C4=O)CC2)CC1` (stereo not drawn) [Example E46], 1610 nM.

For a further assay, the system named is BaF3 (EGFR WT). In words: Cell proliferation IC50 assay (Cell Titer GLO), BaF3 WT cells. Format: cell-based. Particulars: Mus musculus, Ba/F3 EGFR, Table 6, 10 ng/ml EGF, 72 h. The method, boiled down:
as §1
In turn, `CCc1cc(Nc2ncc(Cl)c(Nc3ccccc3P(C)(C)=O)n2)c(OC)cc1N1CCC(N2CCN(CC(C)(C)Oc3cccc4c3CN(C3CCC(=O)NC3=O)C4=O)CC2)CC1` (stereo not drawn) [Example E157] gave a 50% inhibitory concentration (IC50) of 3.78 µM.
Still for that read-out and setting: as for `CCc1cc(Nc2ncc(Cl)c(Nc3ccccc3P(C)(C)=O)n2)c(OC)cc1N1CCC(N2CCN([C@H]3C[C@H](Oc4cc5c(cc4F)C(=O)N(C4CCC(=O)NC4=O)C5)C3)CC2)CC1` (stereo partly drawn) [Example E205], the figure is > 4 µM; as for `CCc1cc(Nc2ncc(Cl)c(Nc3ccc(F)cc3P(C)(C)=O)n2)c(OC)cc1N1CCC(N2CCN(CCOc3cccc4c3CN(C3CCC(=O)NC3=O)C4=O)CC2)CC1` (stereo not drawn) [Example E124], 3.97 µM.
In the case of `CCc1cc(Nc2ncc(Cl)c(Nc3ccccc3P(C)(C)=O)n2)c(OC)cc1N1CCC(N2CCN(CCOCCc3cccc4c3CN(C3CCC(=O)NC3=O)C4=O)CC2)CC1` (stereo not drawn) [Example E109], the IC50 is > 4 µM.
In turn, `CCc1cc(Nc2ncc(Cl)c(Nc3ccccc3P(C)(C)=O)n2)c(OC)cc1N1CCC(N2CCN([C@H]3C[C@H](Oc4cccc5c4CN(C4CCC(=O)NC4=O)C5=O)C3)CC2)CC1` (stereo partly drawn) [Example E160] registered an IC50 of 1.29 µM.
`CCc1cc(Nc2ncc(Cl)c(Nc3ccccc3P(C)(C)=O)n2)c(Cl)cc1N1CCC(N2CCN(CCC#Cc3cccc4c3CN(C3CCC(=O)NC3=O)C4=O)CC2)CC1` (stereo not drawn) [Example E46] came in with a 50% inhibitory concentration (IC50) of 1.2 µM.

A further assay concerns the target T1, BaF3 (EGFR Del19/C797S) (Homo sapiens, UniProt P00533, C797S, cells depend on it, form not given).
T1 construct: BaF3 (EGFR Del19/C797S)|DC|RPMI1640 + 10% FBS
In words: Cell proliferation IC50 assay (Cell Titer GLO), BaF3 DC cells. Format: cell-based, mouse. Particulars: Table 6, 72 h. In short, it runs like this: as §1
As to `CCc1cc(Nc2ncc(Cl)c(Nc3ccccc3P(C)(C)=O)n2)c(OC)cc1N1CCC(N2CCN(CC(C)(C)Oc3cccc4c3CN(C3CCC(=O)NC3=O)C4=O)CC2)CC1` (stereo not drawn) [Example E157], 33.7 nM corresponded to half-maximal inhibition (IC50).
On to `CCc1cc(Nc2ncc(Cl)c(Nc3ccccc3P(C)(C)=O)n2)c(OC)cc1N1CCC(N2CCN([C@H]3C[C@H](Oc4cc5c(cc4F)C(=O)N(C4CCC(=O)NC4=O)C5)C3)CC2)CC1` (stereo partly drawn) [Example E205], for which the IC50 came out at 9.9 nM.
The same measure, in the same setting: as for `CCc1cc(Nc2ncc(Cl)c(Nc3ccc(F)cc3P(C)(C)=O)n2)c(OC)cc1N1CCC(N2CCN(CCOc3cccc4c3CN(C3CCC(=O)NC3=O)C4=O)CC2)CC1` (stereo not drawn) [Example E124], the figure is 106 nM; as for `CCc1cc(Nc2ncc(Cl)c(Nc3ccccc3P(C)(C)=O)n2)c(OC)cc1N1CCC(N2CCN(CCOCCc3cccc4c3CN(C3CCC(=O)NC3=O)C4=O)CC2)CC1` (stereo not drawn) [Example E109], 6.5 nM.
In turn, `CCc1cc(Nc2ncc(Cl)c(Nc3ccccc3P(C)(C)=O)n2)c(OC)cc1N1CCC(N2CCN([C@H]3C[C@H](Oc4cccc5c4CN(C4CCC(=O)NC4=O)C5=O)C3)CC2)CC1` (stereo partly drawn) [Example E160] returned an IC50 of 0.8 nM.
The compound `CCc1cc(Nc2ncc(Cl)c(Nc3ccccc3P(C)(C)=O)n2)c(Cl)cc1N1CCC(N2CCN(CCC#Cc3cccc4c3CN(C3CCC(=O)NC3=O)C4=O)CC2)CC1` (stereo not drawn) [Example E46] came in with an IC50 of 9.2 nM.

For the origin of these results see patent publication US20240408216A1, “PROTEIN INHIBITOR OR DEGRADING AGENT, PHARMACEUTICAL COMPOSITION CONTAINING SAME AND PHARMACEUTICAL USE” (JING MEDICINE TECHNOLOGY (SHANGHAI) LTD., priority 2021, published 2024).
